In brackets after ≈: the same amount, converted by molar mass. Values belong to the compound of their own block, whether it stands above or below them. Activity calls are given as the source filed them. No cut-off for these calls is given here.
Assays:
Tumor necrosis factor [1] = target: T1, Tumor necrosis factor (Homo sapiens, UniProt P01375)
Description: Binding affinity to biotinylated human TNFalpha trimer (77 to 233 residues) expressed in Escherichia coli BL21(DE3) by SPR analysis

Tumor necrosis factor [2] = target: T1, Tumor necrosis factor; remark: listed apart in the source
Description: Inhibition of probe-5 binding to human TNFalpha (77 to 233 residues) at 1 nM by fluorescence polarization assay

Tumor necrosis factor [3] = target: T1, Tumor necrosis factor; remark: listed apart in the source
Description: Induction of stabilization of biotinylated human TNFalpha trimer (77 to 233 residues) expressed in Escherichia coli BL21(DE3) assessed as change in melting temperature

[4] = Half life in CD1 mouse at 1 mg/kg, iv after 24 hrs by HPLC-MS/MS analysis; format: ADME, organism-based; conditions: in vivo
[5] = Volume of distribution at steady state in CD1 mouse at 1 mg/kg, iv after 24 hrs by HPLC-MS/MS analysis; format: ADME, organism-based; conditions: in vivo, read-out: Vdss
[6] = AUC in CD1 mouse at 1 mg/kg, iv after 24 hrs by HPLC-MS/MS analysis; format: ADME, organism-based; design: route intravenous, dose 1 mg/kg, time 24 hrs; conditions: in vivo
[7] = Blood clearance in CD1 mouse at 1 mg/kg, iv after 24 hrs by HPLC-MS/MS analysis; format: ADME, organism-based
[8] = Unbound clearance in CD1 mouse at 1 mg/kg, iv after 24 hrs by HPLC-MS/MS analysis; format: ADME, organism-based; conditions: in vivo
[9] = Half life in CD1 mouse at 1 mg/kg, po after 24 hrs by HPLC-MS/MS analysis; format: ADME, organism-based; conditions: in vivo
[10] = Cmax in CD1 mouse at 1 mg/kg, po after 24 hrs by HPLC-MS/MS analysis; format: ADME, organism-based; design: route oral, dose 1 mg/kg, time 24 hrs; conditions: in vivo
[11] = Tmax in CD1 mouse at 1 mg/kg, po after 24 hrs by HPLC-MS/MS analysis; format: ADME, organism-based; conditions: in vivo
[12] = AUC in CD1 mouse at 1 mg/kg, po after 24 hrs by HPLC-MS/MS analysis; format: ADME, organism-based; design: route oral, time 24 hrs, dose 1 mg/kg; conditions: in vivo
[13] = Unbound AUC in CD1 mouse at 1 mg/kg, po after 24 hrs by HPLC-MS/MS analysis; format: ADME, organism-based; conditions: in vivo
[14] = Oral bioavailability in CD1 mouse at 1 mg/kg after 24 hrs by HPLC-MS/MS analysis; format: ADME, organism-based; conditions: in vivo
Mus musculus = test: Antiarthritic activity in DBA/J mouse model of CFA and glucose-6-phosphate isomerase-induced arthritis model assessed as inhibition of paw swelling at 30 to 100 mg/kg, po BID beginning 1 hr prior to GPI immunization and measured on days 13, 15, and 17 after GPI immunization; format: functional, organism-based; conditions: dose 30-100 mg/kg, time 13-17 day
[15] = Drug uptake in DBA/J mouse model of CFA and glucose-6-phosphate isomerase-induced arthritis model at 10 to 100 mg/kg, po BID beginning 1 hr prior to GPI immunization and measured up to day 17 after GPI immunization by HPLC-MS/MS analysis; format: ADME, organism-based; conditions: in vivo, 408 h, dose 10-100 mg/kg, time 17 day
[16] = (§1) Cmax in DBA/J mouse model of CFA and glucose-6-phosphate isomerase-induced arthritis model at 10 mg/kg, po BID beginning 1 hr prior to GPI immunization and measured up to day 17 after GPI immunization by HPLC-MS/MS analysis; format: ADME, organism-based; design: route oral, time 17 day, dose 10 mg/kg; conditions: in vivo
[17] = (§2) Cmax in DBA/J mouse model of CFA and glucose-6-phosphate isomerase-induced arthritis model at 30 mg/kg, po BID beginning 1 hr prior to GPI immunization and measured up to day 17 after GPI immunization by HPLC-MS/MS analysis; format: ADME, organism-based; design: route oral, time 17 day, dose 30 mg/kg; conditions: in vivo
[18] = (§3) Cmax in DBA/J mouse model of CFA and glucose-6-phosphate isomerase-induced arthritis model at 100 mg/kg, po BID beginning 1 hr prior to GPI immunization and measured up to day 17 after GPI immunization by HPLC-MS/MS analysis; format: ADME, organism-based; design: route oral, time 17 day, dose 100 mg/kg; conditions: in vivo
[19] = AUC (0 to 12 hrs) in DBA/J mouse model of CFA and glucose-6-phosphate isomerase-induced arthritis model at 10 mg/kg, po BID beginning 1 hr prior to GPI immunization and measured up to day 17 after GPI immunization by HPLC-MS/MS analysis; format: ADME, organism-based; design: route oral, time 17 day, dose 10 mg/kg; conditions: in vivo
[20] = AUC (0 to 12 hrs) in DBA/J mouse model of CFA and glucose-6-phosphate isomerase-induced arthritis model at 30 mg/kg, po BID beginning 1 hr prior to GPI immunization and measured up to day 17 after GPI immunization by HPLC-MS/MS analysis; format: ADME, organism-based; design: route oral, time 17 day, dose 30 mg/kg; conditions: in vivo
[21] = AUC (0 to 12 hrs) in DBA/J mouse model of CFA and glucose-6-phosphate isomerase-induced arthritis model at 100 mg/kg, po BID beginning 1 hr prior to GPI immunization and measured up to day 17 after GPI immunization by HPLC-MS/MS analysis; format: ADME, organism-based; design: route oral, dose 100 mg/kg, time 17 day; conditions: in vivo
[22] = as §1, with “Selectivity index, ratio of Cmax” for “Cmax”, “analysis to EC50 for inhibition of TNFalpha in mouse L929 cells exposed to compound incubated for 1 hr with mouse TNFalpha by luminescence based assay” for “analysis”; conditions: time 17 day
[23] = as §2, with “Selectivity index, ratio of Cmax” for “Cmax”, “analysis to EC50 for inhibition of TNFalpha in mouse L929 cells exposed to compound incubated for 1 hr with mouse TNFalpha by luminescence based assay” for “analysis”; conditions: time 17 day
[24] = as §3, with “Selectivity index, ratio of Cmax” for “Cmax”, “analysis to EC50 for inhibition of TNFalpha in mouse L929 cells exposed to compound incubated for 1 hr with mouse TNFalpha by luminescence based assay” for “analysis”
Tumor necrosis factor [25] = target: T1, Tumor necrosis factor; remark: listed apart in the source
Description: Binding affinity to biotinylated human TNFalpha trimer (77 to 233 residues) expressed in Escherichia coli BL21(DE3) assessed as binding half life by SPR analysis

[26] = Intrinsic clearance in mouse liver microsomes; format: ADME, Microsome; conditions: read-out: CLH (converted)
[27] = Intrinsic clearance in human liver microsomes; format: ADME, Microsome; conditions: read-out: CLH (converted)
[28] = Solubility in phosphate buffer at pH 7.4; format: physicochemical
[29] = Fraction unbound in plasma (unknown origin); format: ADME, cell-free
Tumor necrosis factor [30] = target: T1, Tumor necrosis factor; conditions: dose 1.0 nM, TDE = time-dependent effect

T1 sequence (P01375 whole entry): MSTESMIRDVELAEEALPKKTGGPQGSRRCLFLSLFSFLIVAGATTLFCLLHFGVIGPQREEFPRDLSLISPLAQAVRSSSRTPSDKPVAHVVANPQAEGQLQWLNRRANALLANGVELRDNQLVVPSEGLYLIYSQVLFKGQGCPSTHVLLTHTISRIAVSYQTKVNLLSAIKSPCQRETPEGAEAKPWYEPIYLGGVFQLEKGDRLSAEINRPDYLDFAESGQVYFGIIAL

SMILES: c1ccc(-c2cccc3ccncc23)cc1
Kd (Tumor necrosis factor [1]): 60000 nM
IC50 (Tumor necrosis factor [2]): 25300 nM

SMILES: Cc1nc2ccccc2n1Cc1ccccc1
Kd (Tumor necrosis factor [1]): 325000 nM

SMILES: Cc1ccc(Cn2cnc3ccccc32)c(C)c1
Kd (Tumor necrosis factor [1]): 106000 nM

SMILES: c1ccc(-c2cccc3ccncc23)c(OCCc2ccc(-c3cccc4ccncc34)cc2)c1
Kd (Tumor necrosis factor [1]): 74 nM
IC50 (Tumor necrosis factor [2]): 1350 nM
ΔTm (Tumor necrosis factor [3]): 7 °C

half-life [4]: 1.1 h
Vd [5]: 2.12 L/kg
AUC at 24 h [6]: 523 ng·h/mL
clearance [7]: 32 mL/min/kg
CL free [8]: 198 mL/min/kg
half-life [9]: 1.6 h
Cmax [10]: 81.7 ng/mL
Tmax [11]: 1 h
AUC at 24 h [12]: 263 ng·h/mL
fAUC [13]: 42.4 ng·h/mL
bioavailability [14]: 50.4%
Drug uptake [15]: Dose-dependent effect
Cmax [16]: 767 ng/mL
Cmax [17]: 2980 ng/mL
Cmax [18]: 6190 ng/mL
AUC at 408 h [19]: 3830 ng·h/mL
AUC at 408 h [20]: 10200 ng·h/mL
AUC at 408 h [21]: 46300 ng·h/mL
SMILES: CC1(C)C(=O)c2ccc(-c3cnc(N4CCN5C(=O)NC[C@@H]5C4)nc3)cc2N1Cc1cccnc1C#N
Activity (Mus musculus): Active
Ratio [22]: 2.1
Ratio [23]: 8.3
Ratio [24]: 17
Kd (Tumor necrosis factor [1]): 6.8 nM
IC50 (Tumor necrosis factor [2]): 71 nM
T1/2 (Tumor necrosis factor [25]): 0.9 h

CLint scaled [26]: 1680 mL/min/kg
CLint scaled [27]: 2280 mL/min/kg
solubility [28]: 1.2 µM (≈ 0.662 µg/mL)
fraction unbound [29]: 0.00293
half-life [4]: 4.4 h
Vd [5]: 2.12 L/kg
AUC at 24 h [6]: 3110 ng·h/mL
clearance [7]: 6.15 mL/min/kg
CL free [8]: 2100 mL/min/kg
half-life [9]: 4.7 h
Cmax [10]: 200 ng/mL
Tmax [11]: 1.8 h
AUC at 24 h [12]: 2340 ng·h/mL
fAUC [13]: 6.86 ng·h/mL
bioavailability [14]: 75.4%
SMILES: C[C@@H]1CN(c2ncc(-c3ccc4c(c3)N(Cc3ccccc3OC(F)F)C(C)(C)C4=O)cn2)CCN1C(=O)CO
Kd (Tumor necrosis factor [1]): 1.3 nM
IC50 (Tumor necrosis factor [2]): 189 nM
T1/2 (Tumor necrosis factor [25]): 42.8 h

SMILES: CN1CCN(Cc2ccc(-c3c[nH]c4ccncc34)c(OCCc3ccc(-c4cccc5ccncc45)cc3)c2)CC1
Kd (Tumor necrosis factor [1]): 2.4 nM
IC50 (Tumor necrosis factor [2]): 29 nM
ΔTm (Tumor necrosis factor [3]): > 15 °C

SMILES: O=C(NCCOCCOCCOCc1ccc(-c2cccc3ccncc23)c(OCCc2ccc(-c3cccc4ccncc34)cc2)c1)c1ccc2c(c1)C(=O)OC21c2cc(F)c(O)cc2Oc2cc(O)c(F)cc21
Activity (Tumor necrosis factor [30]): Tde

SMILES: N#CCc1ccc(-c2cccc3ccncc23)cc1
Kd (Tumor necrosis factor [1]): 2700 nM
IC50 (Tumor necrosis factor [2]): 7960 nM
ΔTm (Tumor necrosis factor [3]): 4 °C

solubility [28]: 48.4 µM (≈ 24.8 µg/mL)
fraction unbound [29]: 0.137
half-life [4]: 1.4 h
Vd [5]: 17.3 L/kg
AUC at 24 h [6]: 124 ng·h/mL
clearance [7]: 146 mL/min/kg
CL free [8]: 955 mL/min/kg
half-life [9]: 2 h
Cmax [10]: 16.7 ng/mL
Tmax [11]: 1 h
AUC at 24 h [12]: 62.7 ng·h/mL
fAUC [13]: 9.6 ng·h/mL
bioavailability [14]: 50.8%
SMILES: C[C@@H]1CN(c2ncc(-c3ccc4c(c3)N(Cc3cccnc3C#N)C(C)(C)C4=O)cn2)CCN1C(=O)CO
Kd (Tumor necrosis factor [1]): 7.3 nM
IC50 (Tumor necrosis factor [2]): 163 nM
T1/2 (Tumor necrosis factor [25]): 62.3 h

SMILES: c1ccc(Cn2cnc3ccccc32)cc1
Kd (Tumor necrosis factor [1]): 300000 nM
IC50 (Tumor necrosis factor [2]): 204000 nM

From ChEMBL document CHEMBL4765484, “Development of Orally Efficacious Allosteric Inhibitors of TNFα via Fragment-Based Drug Design” (J Med Chem, 2021)
